# Test results as given in patent US20030050293A1, “Use of dehydroepiandrosterone, its precursors and derivatives, by oral administration, as hydrating agents with direct action” (priority 2000, published 2003).
# Columns and labels:
# [1] = system: skin on the ventral side of the forearm of healthy volunteers; experiment: Evaluation of the moisturization of the skin by electrical conductance (Dermodiag), randomized double-blind clinical study; type: in vivo, human; conditions: for moisturization of the skin vs placebo (Wilcoxon test): 12 months oral 50 mg daily; for Conductance: 50 mg daily oral
# Procedure: (§1) The evaluation was carried out using a randomized double-blind clinical study among 280 individuals (140 men and 140 women). The inclusion criteria was as follows: healthy volunteers, of both sexes, free of any severe pathological condition and 60 to 80 years old.
# (§2) The treatment consisted, for 12 months, of a daily dose of 50 mg of DHEA, taken in the morning, in the form of a breakable tablet, for half of the individuals, or of a placebo for the other half of the individuals.
# The moisturization of the skin on the ventral side of the forearm is measured, blind, at the start of treatment (T0) and at the end of treatment (T12), by the same clinician, using a Dermodiag®, which is a device described in patent U.S. Pat. No. 5,001,436. The characteristics of the device are as follows: outlet impedance: 1.4 kOhms and working frequency 10 MHz. The method used is that described by J. L. Lévêque, Soc. Cosmet. Chem. (1983), 34, 419-428.
# This device makes it possible to evaluate the state of moisturization (water content of the superficial layers of the epidermis) by measuring electrical conductance. The conductance is measured using an electrode applied to the skin for 10 seconds. The conductance value is the result of the mean of 6 individual measurements per measurement time.
# (§3) The statistical analysis is performed using the Wilcoxon test.
# [2] = system: sebaceous glands of the skin of healthy volunteers; experiment: Evaluation of the production of sebum (Sebutape patches, number of spots by image analysis), randomized double-blind clinical study; type: in vivo, human; conditions: for variation in seborrhea vs placebo (Wilcoxon test): 12 months oral 50 mg daily; for Number of spots: 50 mg daily oral
# Procedure: as §1, §2
# The production of sebum is measured at the start of treatment (T0) and at the end of treatment (T12) according to the techniques described by A. M. Kligman et al., J. Soc. Cosmet. Chem. (1986), 37, 369-373 and by K. M. Nordstrom et al., J. Invest. Dermatol. (1986), 87, 260-264.
# White adhesive microporous patches (Sebutape®, Cuderm Corporation, Dallas, Tex., USA) described in U.S. Pat. No. 4,532,937 are used; the patches are applied in a standardized manner to the skin, which has been wiped 10 times, beforehand, with cotton soaked in 70° alcohol in order to remove any fat. The lipids which are passively absorbed onto the patches are visualized by the presence of transparent spots, themselves measured by image analysis.
# Each spot represents an active sebaceous gland.
# as §3
# [3] = men, T0 (start of treatment), DHEA group
# [4] = men, T12 (end of 12 months treatment)
# [5] = women, T0 (start of treatment), DHEA group
# [6] = women, T12 (end of 12 months treatment)
smiles,measurement,setting,value
"C[C@]12CC[C@H](O)CC1=CC[C@@H]1[C@@H]2CC[C@]2(C)C(=O)CC[C@@H]12 [DHEA, Dehydroepiandrosterone]",moisturization of the skin vs placebo (Wilcoxon test),"[1]; men, p=0.03",significant improvement
same,Conductance,[1]; [3],69
same,Conductance,[1]; [4],86
same,"improvement of the moisturization of the skin, measured by conductance","[1]; men, treated group, T12 vs T0, 50 mg daily oral (placebo +21%, p=0.03)",26%
same,moisturization of the skin vs placebo (Wilcoxon test),"[1]; women, p=0.44",without significant variation in the moisturization of the skin
same,Conductance,[1]; [5],64
same,Conductance,[1]; [6],84
same,variation in seborrhea vs placebo (Wilcoxon test),"[2]; men, p=0.46",no significant variation in seborrhea
same,Number of spots,[2]; [3],55
same,Number of spots,[2]; [4],140
same,variation in seborrhea vs placebo (Wilcoxon test),"[2]; women, p=0.0001",significant variation in seborrhea
same,Number of spots,[2]; [5],2
same,Number of spots,[2]; [6],56
